Data reported in patent US9050298B2, “Method of treating ischemia/reperfusion injuries to a heart with netrin-1” (The Regents of the University of California, priority 2010, dated 2015).
Entries after “also recorded” stand apart in the source; their conditions may differ.

How the values were obtained:
[1] = system: isolated cardiomyocytes; assay: DCC expression in NO donor-treated isolated cardiomyocytes; assay type: cell-based, mouse; settings: NO donor 1 mmol/L, 2 hr
Method: NaCl 130, KCl 5.4, MgSO4 1, NaH2PO4 0.6, D-Glucose 10, HEPES 10, which was continuously bubbled with 95% O2+5% CO2. The enzymatic digestion was commenced by adding collagenase type II (Worthington Biochemical Corp., Lakewood, N.J., 0.56 mg/ml each) to the perfusion buffer and continued for 20 min. The heart was cut down and placed in the Petri dish with perfusion solution. The digested ventricular tissues were cut into 2-3 mm pieces and gently aspirated with a transfer pipette to facilitate cell dissociation. The myocytes were allowed to sediment by gravity for 8-10 min in the 15-ml Falcon tubes.

[2] = system: Bovine aortic endothelial cells (BAEC); assay: DCC expression in NO donor-treated BAECs; assay type: cell-based; settings: NO donor 1 mmol/L, 2 hr
[3] = system: infarct size post I/R insult; settings: nitrite supplementation; cited from earlier work
[4] = system: cardiac NO production; assay: ESR detection of nitric oxide in Langendorff perfused heart homogenates; design: species or system mouse; settings: agent prior to netrin-1, I/R; vs. untreated I/R controls
Method: Langendorff perfusion: The mice were anesthetized with intraperitoneal pentobarbitone (60 mg/kg). Hearts were harvested and rapidly transferred into ice-cold Krebs-Henseleit buffer (KHB). […] NaCl118.0, KCl 4.7, CaCl2 2.5, MgSO4 1.2, KH2PO4 1.2, NaHCO3 25.0, D-Glucose 10 at constant pressure (80±1 mmHg) using a peristaltic pump and feedback system. For no I/R setting, hearts were perfused with KHB or netrin-1 for 120 min. […] These experimental protocols are illustrated in FIG. 7. Electron spin resonance detection of nitric oxide radical: Bioavailable nitric oxide radical (NO) from cells or tissues was detected using electron spin resonance (ESR) as described. See Nguyen et al. (2006) PNAS USA 103:6530-5; and Youn et al. (2009) Circ. Res 104:50-59, which are herein incorporated by reference. […] Gently collected homogenates or cell suspensions were snap-frozen in liquid nitrogen and loaded into a finger Dewar for analysis with an eScan electron spin resonance (ESR) spectrophotometer (Bruker, Freemont, Calif.) at the following settings: center field, 3410; field sweep, 100 G; microwave frequency, 9.73 GHz; microwave power, 13.26 mW; modulation amplitude, 9.82 G; 512 points resolution and receiver gain, 356.

[5] = system: mouse heart ischemia/reperfusion injury; assay: Langendorff I/R, netrin-1 given post-conditionally at onset of reperfusion, TTC infarct size; settings: for Infarct size, inhibitor alone: given at reperfusion without netrin-1; for Effect of netrin-1 postconditioning on infarct size, inhibitor co-treatment: inhibitor with netrin-1
Source text: FIG. 17 diagrammatically provides the experimental protocols of the isolated C57BL/6J WT, DCC +/+ and +/−mice heart experiments with netrin-1 added post-conditionally. Data included in up to FIG. 16 indicated preventative role of netrin-1 in cardiac I/R injury when netrin-1 was given pre-conditionally ([…]). These new set of experiments are however critical in understanding if netrin-1 exerts cardioprotective effects when delivered as a post-conditioning agent at the onset of reperfusion (i.e. together with PTCA procedure). All hearts were stabilized for 40 min prior to experiments. Control hearts received 20 min of global no-flow ischemia followed by 60 min of reperfusion. Netrin-1 was given at the onset of the reperfusion. The signaling pathway inhibitors were given either alone accordingly or with the netrin-1 treatment. The arrows indicate the time for myocardial infarct sizing with 2,3,5-TTC (TTC) and for protein analysis by Western blot (WB). ▪=global no-flow ischemia.
Langendorff perfused hearts isolated from C57BL/6J wild-type (WT) control mice or DCC +/−mice underwent 20-min of global ischemia followed by 60-min of reperfusion. DCC (deleted in colorectal cancer) is one of the netrin-1 receptors we found to be however specifically involved in netrin-1 preconditioning induced cardioprotection. Netrin-1 was infused postconditionally at the onset of reperfusion at 100 ng/mL concentration with and without U0126, a specific MEK1/2 inhibitor, or 2-Phenyl-4,4,5,5-tetramethylimidazoline-1-oxyl-3-oxide (PTIO), a nitric oxide (NO)-scavenger. Infarct size was determined to evaluate the severity of myocardial injury using TTC staining, and protein kinase activations determined by Western blot analysis.

[6] = system: mouse heart ischemia/reperfusion injury; assay: Langendorff perfused mouse heart, global ischemia/reperfusion, infarct size by TTC (netrin-1 pre-perfusion); settings: agent 30 min prior to netrin-1 (100 ng/ml, 45 min), then I/R
Method: Langendorff perfusion: The mice were anesthetized with intraperitoneal pentobarbitone (60 mg/kg). Hearts were harvested and rapidly transferred into ice-cold Krebs-Henseleit buffer (KHB). […] NaCl118.0, KCl 4.7, CaCl2 2.5, MgSO4 1.2, KH2PO4 1.2, NaHCO3 25.0, D-Glucose 10 at constant pressure (80±1 mmHg) using a peristaltic pump and feedback system. For no I/R setting, hearts were perfused with KHB or netrin-1 for 120 min. […] These experimental protocols are illustrated in FIG. 7. Infarct size analysis: […] The heart slices were then digitally photographed for planimetry using NIH Image 1.62. Infarct size is expressed as an infarct-to-risk zone ratio (the risk zone is the whole ventricular volume in this global ischemic model).

[7] = system: I/R-induced cardiac apoptosis; assay: TUNEL apoptosis detection in post-I/R heart sections; design: species or system mouse; settings: agent + netrin-1, I/R
Method: Detection of apoptosis: Apoptosis was detected by the apoptosis detection kit (Chemicon International, Inc., Billerica, Mass.) according to the manufacturer's protocol. At the end of the experimental protocols frozen heart sections (12 μm) were fixed with 1% formalin for 10 min at room temperature (RT) and washed twice in PBS, permeabilized with ethanol/acetic acid (2:1) for 5 min at −20° C., washed twice in PBS, and then incubated for >10 sec with the equilibration buffer. Subsequently, the sections were incubated for 1 hr with DIG-conjugated dUTP and TdT enzymes at 37° C., and then for 10 min in the stop buffer at room temperature (RT), and finally washed three times in PBS. The sections were then incubated with FITC-conjugated anti-DIG antibody for 30 min at RT, and washed three times in PBS. Cover-slipped sections were mounted with medium containing 0.5 μg/ml of propidium iodide. […] TUNEL assay was performed to determine whether netrin-1 inhibits apoptotic cell death induced by I/R. Left ventricular sections were incubated with FITC-conjugated anti-DIG antibody and coverslipped with the mounting medium containing 0.5 μg/ml of Propidium Iodide (PI).

[8] = system: DCC/ERK1/2/eNOS pathway; assay: Western blot / RT-PCR of DCC, ERK1/2, eNOS signalling in perfused hearts; design: species or system mouse; settings: agent + netrin-1, I/R
Method: RT-PCR and Western blot: Total RNA was extracted from mouse hearts using TRIzol (Invitrogen, Carlsbad, Calif.) according to the manufacturer's instructions. Reverse transcription was performed in standard fashion with iScript cDNA Synthesis Kit (Bio-Rad, Hercules, Calif.). PCR was performed using the following primer pairs: PCRs were carried out on an iCycler (Bio-Rad, Hercules, Calif.) including primers generated for GAPDH, ((95° C./2 min), (95° C./25 sec, 57° C./5 sec, 68° C. 5 min)×35, (72° C./10 min)). Western blot analysis was performed as previously published. See Youn et al. (2009) Circ. Res 104:50-59, which is herein incorporated by reference. For no I/R setting, hearts were perfused with KHB or netrin-1 for 120 min. […] These experimental protocols are illustrated in FIG. 7.

[9] = system: NOS; assay: L-NAME sensitive superoxide production (NOS coupling state); design: species or system mouse; settings: superoxide with and without L-NAME, I/R hearts
Method: Superoxide measurements with electron spin resonance (ESR): Superoxide production was measured from heart homogenates using ESR as previously described. Briefly, heart homogenate (10 μg) was mixed in a spin trap solution (CMH, 0.5 mmol/L), loaded into a glass capillary (Fisher Scientific) in the presence or absence of L-NAME (100 μmol/L), and assayed for superoxide using a Bio-Spin ESR spectorphotometer (Bruker) at the following settings: center field 3476; […]; frequency 9.75 GHz; microwave power 21.02 mW; modulation amplitude 2.47 G; 512 points resolution; receiver gain 1000. Netrin-1 attenuates I/R induced NOS uncoupling: To assess the coupling state of NOS under I/R and netrin-1-infused I/R conditions, superoxide production was measured with and without the addition of L-NAME, a general inhibitor of NOS. Under normal conditions when NOS is coupled, it produces nitric oxide (NO). Therefore, the addition of L-NAME will reduce the level of NO, resulting in an increase in measured superoxide production. On the other hand, if NOS is uncoupled and is producing superoxide, the addition of L-NAME will reduce measured superoxide. […] Using this method, the coupling state of whole heart homogenate from each condition was measured (n=5 each condition), with the results shown in FIG. 13.

[10] = system: heart mitochondria; assay: Mitochondrial swelling assay on mitochondria from perfused hearts; design: species or system mouse; settings: isolated mitochondria, absorbance 540 nm
Method: Mitochondria isolation: Heart tissue was rinsed twice in ice cold PBS immediately after the end of the Langendorff experiment. The tissue was then homogenized in a pre-chilled glass homogenizer using isolation buffer I (sucrose 250 mM, EGTA 1 mM, HEPES10 mM, and Tris-HCl 10 mM, pH 7.4, 1 ml buffer/0.1 g tissue) on ice. The homogenate was then centrifuged at 800 g for 7 min at 4 C. The supernatant was then transferred to a new tube and centrifuged at 4000 g for 15 min at 4° C. The pellet was rinsed using 1 ml of isolation buffer II (sucrose 250 mM, HEPES 10 mM, Tris-HCl 10 mM, pH 7.4), then centrifuged again at 4000 g for 15 min at 4° C. Further purification was performed by resuspending the pellet with 3 ml of a 19% percoll solution, then layering this on top of a double layer of 30% and 60% percoll solution in a centrifugation tube. The entire tube was spun for 60 min at 1,000 g. The mitochondria layer in the tube was carefully removed. Percoll was washed from the sample by alternating centrifugation and resuspension with isolation buffer II. The final pellet was resuspended in isolation buffer II.
Mitochondrial swelling assay: 30 μg of freshly isolated mitochondria were mixed in a buffer containing 250 mM sucrose and 10 mM Tris (pH 7.4). The mixture was then incubated with 5 mM succinate for 1 minute at room temperature, then with 250 μM of CaCl2. Absorbance at 540 nm was measured immediately for 20 min at 1 minute intervals. Swelling was measured as a decrease in absorbance over time.

[11] = system: mouse heart ischemia/reperfusion injury; assay: Langendorff I/R, TTC infarct size, NOX4 siRNA or sepiapterin; settings: TTC staining
[12] = system: cardiac superoxide production; assay: Superoxide measurement with ESR in heart homogenates after Langendorff I/R; design: species or system mouse; settings: siRNA by tail vein, 2 injections
Method: Langendorff perfusion: Animals were initially anesthetized with isoflurane. Hearts from the animals were rapidly removed and transferred to ice cold modified Krebs-Henseleit buffer (KHB), consisting of (in mmol/L): NaCl118.0, KCl 4.7, CaCl2 2.5, MgSO4 1.2, Kh2PO4 1.2, NaHCO3 25.0, Glucose 10, pH 7.35. […] While under perfusion, the heart is kept in a 37° C. chamber. For no I/R, hearts were perfused with KHB for 120 min. […] These treatment protocols are illustrated in FIG. 11A. […] At the end of the Langendorff experiment, hearts were removed from the perfusion apparatus and immediately transferred onto ice awaiting homogenization. […] For Western blot analysis, the supernatant from the homogenate centrifuged at 13,000 rpm for 15 min at 4° C. was used. Superoxide measurements with electron spin resonance (ESR): Superoxide production was measured from heart homogenates using ESR as previously described. Briefly, heart homogenate (10 μg) was mixed in a spin trap solution (CMH, 0.5 mmol/L), loaded into a glass capillary (Fisher Scientific) in the presence or absence of L-NAME (100 μmol/L), and assayed for superoxide using a Bio-Spin ESR spectorphotometer (Bruker) at the following settings: center field 3476; […]; frequency 9.75 GHz; microwave power 21.02 mW; modulation amplitude 2.47 G; 512 points resolution; receiver gain 1000.

[13] = system: NOX4; assay: Western blot of NOX isoforms from whole heart homogenate; design: species or system mouse; settings: NOX4 siRNA in vivo
Source text: Preparation of heart tissue for biochemical assays: At the end of the Langendorff experiment, hearts were removed from the perfusion apparatus and immediately transferred onto ice awaiting homogenization. For superoxide measurement and Western blot analysis, hearts were homogenized with ice cold homogenization buffer (Tris 50 mmol/L, EDTA 0.1 mmol/L, EGTA 0.1 mmol/L, protease inhibitor cocktail, pH 7.4) on ice using a glass homogenizer. For Western blot analysis, the supernatant from the homogenate centrifuged at 13,000 rpm for 15 min at 4° C. was used.
Western blot: Western blotting was performed as per standard protocols. Primary antibody for NOX4 (Abcam, Cambridge, Mass.) was used at a dilution of 1:1000. Primary antibody for actin (Sigma-Aldrich, St. Louis, Mo.) was used at a dilution of 1:3000. Secondary antibody conjugated to HRP (Bio-Rad, Hercules, Calif.) was used at a dilution of 1:2000 for NOX4, and 1:10000 for actin.

Molecule	Netrin-1 stimulated NO production in hearts pre-perfused with the agent [4]	Infarct size, inhibitor alone [5]	Effect of netrin-1 postconditioning on infarct size, inhibitor co-treatment [5]	NOS coupling state under I/R [9]	Mitochondrial function (swelling) in I/R hearts [10]	Infarct size after I/R [11]	further results
CNCCCCCCN(C)/[N+]([O-])=N/O [MAMANOATE]	–	–	–	–	–	–	DCC protein expression in cardiomyocytes [1]: increased DCC protein expression; DCC protein expression in cultured ECs [2]: increased DCC protein expression
O=NO [Nitrite]	–	–	–	–	–	–	reduction in infarct size post I/R insult [3]: 48%
CC1(C)N([O])C(c2ccccc2)=[N+]([O-])C1(C)C [PTIO, 2-phenyl-4,4,5,5-tetramethylimidazoline-1-oxyl 3-oxide]	attenuated	no effect	abolished	–	–	–	–
N#CC(=C(N)Sc1ccccc1N)C(C#N)=C(N)Sc1ccccc1N [U0126, 1,4-diamino-2,3-dicyano-1,4-bis (2-aminophenylthio)butadiene]	1.12±0.15 fold	no effect	abolished	–	–	–	Infarct size / cardioprotection in netrin-1-perfused hearts pre-perfused with the agent [6]: 41.3±4.1%; TUNEL positive cells, agent prior to netrin-1 [7]: 19.24±2.4%; Netrin-1 increase in phosphorylated ERK1/2 and eNOSs1177, agent prior to netrin-1 [8]: inhibited; Netrin-1 restoration of DCC protein expression, agent prior to netrin-1 [8]: abolished; AKT phosphorylation after the entire I/R procedure ([8]; data not shown): unaffected
C[C@H](O)C(=O)C1=Nc2c(nc(N)[nH]c2=O)NC1 [sepiapterin]	–	–	–	effective in recoupling NOS; also recorded: recouples NOS	improving mitochondria function; also recorded: improving mitochondrial function	effective in reducing infarct size	Mitochondrial function (swelling) in I/R hearts ([10]; listed as Sepiapterin): restored mitochondria function; also recorded: effectively diminished mitochondrial dysfunction
NOX4 siRNA: in vivo grade siRNA against NOX4 (SEQ ID NO:19, 20) delivered with nanoparticle transfection kit (chain 1 CAUGCUGCUGCUGUUGCAUGUUUCA; chain 2 CCCUCUGAUGUAAUGGAACUCCGUA; nanoparticle delivery, further chemistry not given here)	–	–	–	functional NOS; also recorded: restored	marked improvement; also recorded: improved	markedly reduced	superoxide levels in NOX4 siRNA treated hearts compared to controls [12]: increased; NOX4 protein expression in hearts of siRNA treated mice [13]: successful silencing
